# Source: the Biogen ADME set (Fang et al. 2023)
# Details: for aqueous solubility: pH 6.8
SMILES,"intrinsic clearance, human liver microsomes","intrinsic clearance, rat liver microsomes",aqueous solubility,MDR1-MDCK efflux ratio,"fraction unbound, human plasma","fraction unbound, rat plasma"
Cc1nc(C2CCN(CC(N)=O)CC2)no1,≤ 4.74 mL/min/kg,≤ 10.7 mL/min/kg,61.4 µg/mL,–,–,–
Cn1ccnc1CN(C(=O)c1[nH]c2ccccc2c1Cl)C1CC1,90.5 mL/min/kg,2250 mL/min/kg,62.3 µg/mL,12.4,–,–
CC(C)N1CCC(O)(c2ccccc2F)CC1,≤ 4.74 mL/min/kg,362 mL/min/kg,41.5 µg/mL,0.537,–,–
Cc1cccc(NC(=O)c2noc3c2CCCC3)n1,197 mL/min/kg,1070 mL/min/kg,17.1 µg/mL,–,–,–
Cc1cc(C)n2nc(C)c(C(=O)NCCc3nnc(C)s3)c2n1,≤ 4.74 mL/min/kg,33.1 mL/min/kg,–,6.5,–,–
Cc1cccc(NC(=O)CSc2nncs2)c1,22.6 mL/min/kg,278 mL/min/kg,–,0.51,–,–
CC(C)c1ccc(-c2cc3c(=O)n(CCC(=O)NCCN(C)C)ccn3n2)cc1,182 mL/min/kg,142 mL/min/kg,55.7 µg/mL,86.7,–,–
NC(=O)CN1CCC(Oc2cccc(F)c2)CC1,≤ 4.74 mL/min/kg,71.6 mL/min/kg,60.8 µg/mL,0.543,–,–
Cc1cc(C)n2ncc(C(=O)NC3CCCCC3)c2n1,55.8 mL/min/kg,166 mL/min/kg,4.94 µg/mL,0.702,–,–
Cc1ccc(Cn2nccc2NC(=O)c2ccncc2)o1,7.52 mL/min/kg,214 mL/min/kg,33.6 µg/mL,2.28,–,–
Cc1cccc(OC2CCN(CC(N)=O)CC2)c1,≤ 4.74 mL/min/kg,67.2 mL/min/kg,79 µg/mL,0.636,–,–
Cc1cccc(N(C)Cc2cnc(N(C)C)nc2)n1,57.7 mL/min/kg,1770 mL/min/kg,–,0.769,–,–
Cc1nc(Nc2ccc(F)cc2)nc2c1ncn2-c1ccc(F)cc1,–,–,0.14 µg/mL,0.388,–,–
O=C(CSc1nc2nc(O)cc(O)c2s1)c1ccc(-c2ccccc2)cc1,139 mL/min/kg,128 mL/min/kg,7 µg/mL,0.876,–,–
O=c1[nH]c2ccccc2n1C1CCN(Cc2nc(Cc3ccccc3)no2)CC1,69.7 mL/min/kg,857 mL/min/kg,–,–,–,–
Cc1cc(NC(=O)N2Cc3cc4c(cc3C3(CCCC3)C2)OCCO4)no1,–,–,0.3 µg/mL,0.72,–,–
CCOCC(=O)NCc1cc(C2CC2)n(C2CCCC2)n1,21.9 mL/min/kg,264 mL/min/kg,37.9 µg/mL,0.768,–,–
CCSCCC(=O)NCCn1nc(C)c(CC)c1C,146 mL/min/kg,1540 mL/min/kg,–,2.49,–,–
c1cncc(-c2ccnn2CN2CCOCC2)c1,–,–,17.3 µg/mL,–,–,–
Cc1noc(CC2CCN(Cc3cccnc3)CC2)n1,5.69 mL/min/kg,48.9 mL/min/kg,–,–,–,–

SMILES,"intrinsic clearance, human liver microsomes","intrinsic clearance, rat liver microsomes",aqueous solubility,MDR1-MDCK efflux ratio,"fraction unbound, human plasma","fraction unbound, rat plasma"
CC(=O)Nc1nc(-c2c(C)cc(C)cc2C)cs1,24.9 mL/min/kg,2360 mL/min/kg,19.2 µg/mL,0.559,–,–
CC(C)(CNc1cnn(CCO)c1)c1ccccc1,8.4 mL/min/kg,324 mL/min/kg,–,–,–,–
O=C1CN(c2ccc(Nc3nccc(C(F)(F)F)n3)cn2)CCN1,≤ 4.74 mL/min/kg,24.4 mL/min/kg,51.3 µg/mL,2.94,0.35,0.271
COCC(=O)N1CCC(Cc2ccccc2-c2cccc(F)c2)(C(=O)NC(C)C)CC1,149 mL/min/kg,572 mL/min/kg,–,33.1,0.0395,0.119
Cc1ccc(C)c(NC(=O)CN2CCCN(c3ccc(C(F)(F)F)cn3)CC2)c1,447 mL/min/kg,1940 mL/min/kg,11.9 µg/mL,0.959,–,–
CCCNC(=O)C1(Cc2ccccn2)CCOCC1,≤ 4.74 mL/min/kg,≤ 10.7 mL/min/kg,85.3 µg/mL,10.9,–,–
NCCc1cnn(Cc2ccccc2)c1,≤ 4.74 mL/min/kg,≤ 10.7 mL/min/kg,–,–,–,–
O=C1CN(C(=O)c2ccc(Cl)cn2)CCN1CCc1ccccc1,7.25 mL/min/kg,499 mL/min/kg,–,1.1,–,–
COc1ccccc1-c1nn(-c2ccccc2)cc1CO,42.1 mL/min/kg,374 mL/min/kg,19.7 µg/mL,0.418,–,–
Cc1nc(NCc2sccc2C)n(C)n1,≤ 4.74 mL/min/kg,21.6 mL/min/kg,–,0.795,–,–
COc1ccc(-c2ccccc2)c(NS(=O)(=O)c2cc(O)c(Cl)cc2Cl)c1,–,–,27.6 µg/mL,–,–,–
c1ccc(C2(c3ccccc3)CCCN(Cc3nnc(C4CC4)o3)C2)cc1,246 mL/min/kg,1200 mL/min/kg,35.6 µg/mL,0.685,–,–
Cn1ncc2c(N3CCN(c4ccc(Cl)c(Cl)c4)CC3)ncnc21,–,–,0.13 µg/mL,–,–,–
CCc1cc(CNC(=O)NC2CCN(CC3CCCCC3)CC2)on1,≤ 4.74 mL/min/kg,80.4 mL/min/kg,–,26.6,–,–
Cc1cc(C)cc(C(=O)NCCCNc2ncccn2)c1,–,–,52.5 µg/mL,–,–,–
Cc1ccc2oc(C(=O)N3CC[C@H](O)[C@@H](N4CCOCC4)CC3)cc2c1,16.6 mL/min/kg,1260 mL/min/kg,–,2.46,–,–
Cn1cc(C(=O)NCCc2c[nH]c3ccccc23)c(-c2cccnc2)n1,36.2 mL/min/kg,415 mL/min/kg,56.2 µg/mL,29,–,–
Cc1nc(NC(c2nccn2C)C2CC2)c2sccc2n1 (stereo unspecified),43.7 mL/min/kg,319 mL/min/kg,51.3 µg/mL,13.9,–,–
CCCNC(=O)c1c(C)nn(-c2ccccc2)c1C,13.1 mL/min/kg,2060 mL/min/kg,30.7 µg/mL,0.668,–,–
COCCc1noc(CN2CC(c3ccccc3)(c3ccccc3)CCC2=O)n1,211 mL/min/kg,2010 mL/min/kg,–,2.43,0.147,0.179

SMILES,"intrinsic clearance, human liver microsomes","intrinsic clearance, rat liver microsomes",aqueous solubility,MDR1-MDCK efflux ratio,"fraction unbound, human plasma","fraction unbound, rat plasma"
CCc1c[nH]c2ncnc(N3CCC(CN4CCN(C)CC4)CC3)c12,≤ 4.74 mL/min/kg,–,–,8.23,0.535,–
CCOC(=O)c1cccnc1-c1ccc2[nH]ccc2c1,86.4 mL/min/kg,695 mL/min/kg,36.8 µg/mL,0.599,–,–
O=C(NCc1ccc(O)c(O)c1)c1ccc2ccccc2n1,≤ 4.74 mL/min/kg,315 mL/min/kg,55.4 µg/mL,–,–,–
O=C(NCc1ccc(F)cc1)c1ccccn1,≤ 4.74 mL/min/kg,21.1 mL/min/kg,34.8 µg/mL,0.543,–,–
CCN1CCC(Nc2ncnc3c2cnn3C)CC1,63.4 mL/min/kg,21.9 mL/min/kg,32.5 µg/mL,4.01,–,–
O=C1N=C2C=CC=CN2C12Cc1ccccc1C2,≤ 4.74 mL/min/kg,≤ 10.7 mL/min/kg,37.4 µg/mL,4.09,–,–
Nc1ccnc2ccc(Oc3ccccc3)cc12,13.5 mL/min/kg,2330 mL/min/kg,–,0.486,–,–
Cc1cc(C)cc(C(=O)Nc2nn(C(C)(C)C)cc2C#N)c1,11.2 mL/min/kg,270 mL/min/kg,38.6 µg/mL,2.1,–,–
CCCc1cc(N2CCc3c(nc(C4CC4)n3C)C2)n2ncnc2n1,9.63 mL/min/kg,179 mL/min/kg,53.3 µg/mL,38.3,0.476,0.244
COc1cccc(OCCCn2cncc2-c2cc3c(cc2OC)OCCCO3)c1,16.7 mL/min/kg,106 mL/min/kg,95.5 µg/mL,5.28,–,–
Cc1ccc(C(N)=O)c(OCc2c(Cl)ccc3cccnc23)c1,–,–,0.61 µg/mL,0.372,–,–
O=C(N[C@@H](COc1ccc2[nH]c(=O)[nH]c2c1)c1ccccc1)c1cccn(Cc2ccc(F)c(F)c2)c1=O,53.2 mL/min/kg,383 mL/min/kg,–,–,–,–
Nc1ncc(-c2cccc(C(F)(F)F)c2)c(C2CCCCN2C(=O)c2ccccc2)n1 (stereo unspecified),380 mL/min/kg,1510 mL/min/kg,25.1 µg/mL,1.93,0.00903,0.0137
Cc1occc1C(=O)NCC(=O)Nc1nc2cc(Cl)ccc2n1C,9.49 mL/min/kg,195 mL/min/kg,27.2 µg/mL,1.31,–,–
CN(C)c1nc(CN2CCOCC2)nc2scc(-c3cccs3)c12,165 mL/min/kg,1790 mL/min/kg,57.3 µg/mL,1.03,–,–
CC(C)(C)c1csc(CCNC(=O)N2CCSCC2)n1,127 mL/min/kg,956 mL/min/kg,69.1 µg/mL,1.14,–,–
CN(C(=O)CNC(=O)c1ccccc1OCC(=O)Nc1ccc(Br)cc1)c1ccccc1,–,–,0.35 µg/mL,3.43,–,–
CCCn1cc(CN2CCC(c3nc(N(C)C)no3)CC2)cn1,21 mL/min/kg,146 mL/min/kg,–,1.14,–,–
